According to US20150362491A1, “METHODS AND ASSAYS RELATING TO RNF216” (THE GENERAL HOSPITAL CORPORATION, priority 2013, published 2015):

Legend:
[1] = test system: rnf216 and rnf216+otud4 (DMO) morphants; assay: in vivo zebrafish assay of neuronal survival and degeneration, SFN co-injected into morphants; details: for morphants with optic tectum defects: 3 dpf
Protocol: Zebrafish embryo injections. Zebrafish were maintained and mated according to standard procedures.^49 Wild-type zebrafish embryos were injected at the 1-4 cell stage with 1 nl diluted MO and 0.5% phenol red. […] For the epistatic interaction experiments, a cocktail containing 6 ng each of rnf216- and otud4-targeting MO was used.
(§1) Zebrafish embryo phenotyping. Injected embryos were scored at 3 days post fertilization for microphthalmia by measuring the area of the eye cup. For immunofluorescence studies, embryos were fixed in Dent's fixative (80% methanol, 20% dimethylsulfoxide) overnight at 4° C. After rehydration with decreasing series of methanol in PBS, the embryos were washed with PBS, permeabilized with 10 μg/ml proteinase K, and postfixed with 4% PFA. Embryos were then washed twice with IF buffer (0.1% Tween-20, 1% BSA in 1×PBS) for 10 min at room temperature. After incubation in blocking solution (10% FBS, 1% BSA in 1×PBS) for 1 h at room temperature, embryos were incubated with anti-α acetylated tubulin (1:1000; T7451, Sigma-Aldrich), overnight at 4° C. After two washes in IF buffer for 10 min, embryos were incubated with Alexa Fluor goat anti-mouse IgG (1:1000; A21207, A11001, Invitrogen) for 1 h at room temperature. Image acquisition and analysis was performed using Nikon NIS-Elements Advanced Research software. For each test, 50-100 embryos were injected and scored by two investigators who were blind to the injection cocktail. All experiments were performed 2-3 times and statistical significance was calculated using Student's t-test.
This hypothesis will be tested in Rnf216^−/− and Otud4^−/− mice.

[2] = test system: pituitary response to GnRH; details: Subject 3, cited from earlier work
[3] = test system: pituitary response to GnRH; assay: reproductive endocrine phenotyping with exogenous GnRH; type: in vivo, human
Protocol: Reproductive Endocrine Phenotyping. Subjects 2, 6, and 8 underwent blood sampling every 10-15 minutes for 3.25-12 h to examine the frequency, amplitude, and morphology of endogenous GnRH-induced luteinizing hormone (LH) pulse patterns. Pulses of LH secretion were identified using a modified version of the method of Santen and Bardin.^45-46 Subjects 1, 2, 6, and 8 received exogenous, pulsatile GnRH with monitoring of gonadotropin responses as described previously.^47-48 Hormone assays were performed as described in ref 48; the Second International Reference Preparation was used as the standard for LH and FSH.

zebrafish embryos = assay: zebrafish embryo morpholino knock-down and human mRNA rescue phenotyping; type: in vivo; details: for organization of the cerebellum (axonal tracts) / size of the optic tectum: 3 d.p.f., anti-α acetylated tubulin staining
Protocol: Zebrafish Investigation. All experiments were carried out with the approval of the Institutional Animal Care and Use Committee. Morpholino oligos (MO) for silencing of zebrafish rnf216 and otud4 were injected either alone or with wild-type (WT) or mutant human mRNA for RNF216, OTUD4, or both.
Morpholino oligonucleotide design. Morpholino oligos were obtained from Gene Tools, LLC (Philomath, Oreg., USA). Reciprocal BLAST against the zebrafish genome identified a sole zebrafish ortholog of […] (ENSDARG00000087893, 59% similarity, 46% identity). The antisense MO used for the silencing of zebrafish rnf216 targeted the intron 5′ donor splice site of the gene: […] (SEQ ID NO: 7).
(§2) Similar to rnf216, a sole ortholog of the human transcript for OTUD4 was identified in zebrafish (73% similarity, 61% identity). […] The MO for otud4 targeted the donor splice site of intron 2: […] (SEQ ID NO: 8).
Zebrafish embryo injections. Zebrafish were maintained and mated according to standard procedures.^49 Wild-type zebrafish embryos were injected at the 1-4 cell stage with 1 nl diluted MO and 0.5% phenol red. A dose of 6 ng of rnf216 or otud4-targeting MO was used as it gave the best rate of silencing and the minimum rate of mortality among the tested working dilutions (4-10 ng). For the epistatic interaction experiments, a cocktail containing 6 ng each of rnf216- and otud4-targeting MO was used.
For RNA rescue experiments, human wild-type or mutant RNF216 (NM_207116.2) and OTUD4 (NM_001102653.1) were cloned into the pCS2+ expression vector and transcribed in vitro using the SP6 Message Machine Kit (Ambion) to produce capped mRNA, and 200 pg of mRNA was injected for the rescue experiments.
as §1

[4] = test system: otud4 endogenous transcript; assay: efficiency of the morpholinos (splicing of endogenous transcript, gel); type: in vivo, zebrafish; details: otud4 MO 4-10 ng; intron 5 retained
Protocol: FIG. 8B depicts a gel of the results of injection of the otud4 MO (4-10 ng), which reduces normal splicing of the endogenous transcript by 90% and favors aberrant splicing resulting in a transcript where intron 5 (73 bp in size) is retained.
as §2

[5] = treatment of rnf216 and DMO morphants with SFN

## C[S@@+]([O-])CCCCN=C=S [SFN, 1-isothio-cyanato-4(R)-methylsulfinylbutane]
[1]; DMO (rnf216+otud4) morphants co-injected with SFN, from 41% without SFN, p<0.001
  morphants with optic tectum defects: 15%
[1]; co-injection of SFN with DMO
  cerebellar disorganization phenotype: failed to ameliorate
[1]; co-injection of SFN with rnf216 MO
  cerebellar disorganization phenotype: failed to ameliorate
[1]; rnf216 morphants co-injected with SFN, from 32% without SFN, p<0.001
  morphants with optic tectum defects: 15%
[1]; [5]
  cerebellar degeneration phenotype (FIG. 10E): not the cerebellar degeneration phenotype
  optic tectum phenotype (FIG. 10D): rescues the optic tectum phenotype

## gonadotropin-releasing hormone (QHWSYGLRPG; Gonadoliberin-1; UniProt P01148 24-33, looked up) [GnRH]
[2]; 90 min after GnRH, baseline 0.06 IU/L
  LH after GnRH: 5.8 IU/L
[2]; 120 min, baseline 0.14 IU/L
  FSH after GnRH: 2.0 IU/L
[3]; Subject 6
  LH response to exogenous GnRH at a standard dose: immediate robust increase in LH
[3]; Subject 8, exogenous pulsatile GnRH 25 to 600 ng/kg q2 h over 2 y, from 2 mL
  testicular volumes: 8 mL
[3]; Subjects 1 and 2, bedridden, late in the course of disease
  gonadotropin responses to pulsatile exogenous GnRH over 7 days: failed to exhibit gonadotropin responses

## human RNF216 mRNA: capped wild-type human RNF216 (NM—207116.2) mRNA transcribed in vitro, 200 pg injected
Zebrafish embryos; co-injection of mRNA with double MO
  rescue of the phenotypes induced by double MO injection: rescued all phenotypes
Zebrafish embryos; co-injection of mRNA with rnf216 MO
  rescue of the tectal phenotype: fully rescued

## otud4 MO: splice-blocking morpholino against zebrafish otud4: TACCCGAAGGAATTTGCGCACCATT (SEQ ID NO: 8) (all phosphorodiamidate morpholino (PMO))
[4]
  reduction of normal splicing of the endogenous transcript: 90%
Zebrafish embryos
  organization of the cerebellum (axonal tracts): cerebellar defects
  size of the optic tectum: reduction in size of the optic tectum

## rnf216 MO: antisense morpholino silencing zebrafish rnf216, donor splice site: CAGAAAATAGTTTGTGCTTACACAT (SEQ ID NO: 7) (all phosphorodiamidate morpholino (PMO))
Zebrafish embryos
  organization of the cerebellum (axonal tracts): disorganization of axonal tracts in the cerebellum
  size of the optic tectum: reduction in size of the optic tectum
[1]; morphants without SFN
  morphants with optic tectum defects: 32%
